According to patent US8617563B2, “Antichlamydial agents” (Duke University, priority 2011, dated 2013):
Where no end group is shown, it is not given here.

Assays:
CPAF = CPAF (Chlamydia trachomatis serovar D, UniProt O84866); type: biochemical, C. trachomatis; design: 6xHis; made in house; host or cells: E. coli (pET30b); conditions: GST-chlamydial substrates in presence of peptides
Description: FIG. 4 depicts (A) Recombinant Chlamydia ORFs were tested for sensitivity to host and bacterial derived proteases. […] Purified his-tagged CPAF was incubated with GST-tagged chlamydial substrates at 37° C. for 20 min with increasing amounts of lactacystin. Cleavage products were run on an SDS PAGE gel and visualized with Coomassie blue staining. (C) Schematic summary of CPAF targets. […] Membranes from Chlamydia-infected HeLa cells were harvested and purified at 0, 24, 36 and 48 hours post-infection, and the abundance of the chlamydial proteins Ct005, IncC and IncD were monitored with specific antibodies. Na/K ATPase and IncG served as host and bacterial-loading controls, respectively.
Cytosols from Chlamydia-infected HeLa cells (40 hrs) or recombinant his-tagged CPAF were pre-treated with rabbit polyclonal anti-CPAF or anti-IncA antisera, and incubated with GST-tagged Chlamydia proteins for 20 min at 37° C. […] Three example proteins shown include a type-III secretion (T3S) core component (CdsQ) a T3S chaperone (Mcsc) and a T3S needle component (Ct584). Processing of recombinant proteins in A-B were monitored by immunoblot analysis with specific antibodies. (C) Protease inhibitor profile of recombinant CPAF. Example shown for the chlamydial substrate GST-IncC. Degradation products were visualized by SDS-PAGE followed by staining with Coomassie blue. […]
Uninfected and HeLa cells pre-infected with L2 for 30 hrs were treated with inhibitory peptides and infected with EBs for 10 min Tarp translocation was indirectly visualized with an anti-phosphotyrosine antibody (A) and quantified by counting 50 separate cells (B). The stability of newly translocated Tarp was assessed by infecting cells as in (A) but with S^35-labeled EBs, followed by sequential immunoprecipitation of Tarp and MOMP and Phosphoimager analysis of precipitated material (C (I-IV)). […] IC50 values were determined by assessing CPAF cleavage of an Abz-tagged CPAF substrate (SEQ ID NO:9) by HPLC. […] Extracellular bacteria were determined. […] The number of internalized EBs was quantified per cell (H). […]

[1] = test system: mouse lung fibroblasts infected with C. trachomatis and C. muridarum; test: Cell death in infected mouse lung fibroblasts from ICE−/− and ASC−/− knockout mice; type: cell-based; conditions: knockout cells, unlike wild-type counterparts
Description: FIG. 12 depicts (A) low-magnification view of C. trachomatis LGV-L2 infected HeLa monolayers (30 h) treated with SEQ ID NO:7 or SEQ ID NO:11 peptides. (B) The frequency of condensed nuclei in treated cells is dependent on peptide concentration and Chlamydia infection. (C-D) Toxicity of CPAF inhibitors to Chlamydia-infected cells is observed in non-myeloid cells including human embryonic kidney cells HEK293 (C) and mouse embryo fibroblasts (D). […] (F-G) Cell death induced by anti-CPAF peptides requires Caspase-1 activation. HeLa cells infected with C. muridarum were treated with Ac-YVAD-CMK at 2 hpi, SEQ ID NO:7 peptide or SEQ ID NO:11 control peptide at 12 hpi and the percentage of infected cells with condensed nuclei was assessed at 48 hpi (F). […] The percentage of infected cells with condensed nuclei was assessed at 48 hpi (G). […] Cell death in infected and uninfected cells treated with CPAF inhibitory peptides or control peptides was determined by counting the number of condensed nuclei of ˜1000 cells.
FIG. 13 depicts (A) that Caspase-1 inhibitors block Chlamydia-mediated cell death. […] Cells were fixed and the percentage of cells with condensed nuclei determined at 24 hpi. […] Infected cells were labeled with a cell-permeable fluorescent substrate of Caspase-1 and treated with inhibitory peptides, and Caspase-1 activity was monitored by flow cytometry. […]

[2] = test system: C. caviae infected HeLa cells; test: Host cell death (condensed nuclei) in C. caviae infected cells; type: cell-based; conditions: peptide-treated HeLa cells; listed as EQ ID NO:7
Description: FIG. 12 depicts (A) low-magnification view of C. trachomatis LGV-L2 infected HeLa monolayers (30 h) treated with SEQ ID NO:7 or SEQ ID NO:11 peptides. (B) The frequency of condensed nuclei in treated cells is dependent on peptide concentration and Chlamydia infection. (C-D) Toxicity of CPAF inhibitors to Chlamydia-infected cells is observed in non-myeloid cells including human embryonic kidney cells HEK293 (C) and mouse embryo fibroblasts (D). […] (F-G) Cell death induced by anti-CPAF peptides requires Caspase-1 activation. HeLa cells infected with C. muridarum were treated with Ac-YVAD-CMK at 2 hpi, SEQ ID NO:7 peptide or SEQ ID NO:11 control peptide at 12 hpi and the percentage of infected cells with condensed nuclei was assessed at 48 hpi (F). Mouse lung fibroblasts (MLF) derived from congenic WT, ICE1^−/− and ASC^−/− animals were infected with C. muridarum and treated with the indicated concentrations of anti peptides 12 hpi. The percentage of infected cells with condensed nuclei was assessed at 48 hpi (G). LGV-L2 inclusions were immunostained with anti-L2 antisera and C. muridarum and C. caviae inclusions were immunostained with an anti-chlamydial LPS monoclonal antibody. Cell death in infected and uninfected cells treated with CPAF inhibitory peptides or control peptides was determined by counting the number of condensed nuclei of ˜1000 cells.

Chain of CPAF (O84866 1-234, added parts left off): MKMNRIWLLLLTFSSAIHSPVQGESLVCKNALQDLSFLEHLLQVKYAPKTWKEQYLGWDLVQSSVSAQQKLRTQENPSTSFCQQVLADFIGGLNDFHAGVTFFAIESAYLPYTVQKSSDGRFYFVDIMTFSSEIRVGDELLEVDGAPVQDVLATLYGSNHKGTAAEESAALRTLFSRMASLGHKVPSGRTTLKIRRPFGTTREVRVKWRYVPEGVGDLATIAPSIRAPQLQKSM
Chain of CPAF (O84866 276-601): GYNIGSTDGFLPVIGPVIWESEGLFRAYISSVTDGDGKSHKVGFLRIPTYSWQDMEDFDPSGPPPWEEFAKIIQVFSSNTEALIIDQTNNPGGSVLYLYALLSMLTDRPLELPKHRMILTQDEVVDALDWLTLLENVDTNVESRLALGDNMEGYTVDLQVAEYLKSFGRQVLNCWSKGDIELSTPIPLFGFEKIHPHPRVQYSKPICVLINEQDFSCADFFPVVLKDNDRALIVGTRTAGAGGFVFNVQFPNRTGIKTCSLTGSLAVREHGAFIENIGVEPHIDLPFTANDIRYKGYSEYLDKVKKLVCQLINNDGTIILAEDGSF

SLFYSPMVPHFWAELRNHYATSGLKRRRRRRRRR-NH2 [SEQ ID NO:7]
Inhibition of degradation of CPAF substrates in vitro (CPAF): broadly inhibited degradation of CPAF substrates
Host cell death in infected ICE−/− and ASC−/− mouse lung fibroblasts [1]: resistant to host cell death
Condensed nuclei / cell death in C. caviae infected cells [2]: do not cause cell death
